Results from patent US10479784B2, “Substituted pyrazin-2-amines as inhibitors of ATR kinase” (Vertex Pharmaceuticals Incorporated, priority 2008, dated 2019).

These compounds were tested against full-length ATR (Homo sapiens (Human), UniProt Q13535) (assay: ATR Inhibition Assay (radioactive-phosphate incorporation)). Conditions: read-out: ATR Ki.
Type: biochemical
Procedure, shortened: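 Ki(app) was derived by non-linear regression of background-corrected initial rates of 33P incorporation into an 800 μM target peptide, read by phosphocellulose filter scintillation counting. Reaction conditions: 5 nM full-length ATR, 10 μM [γ-33P]ATP, pH 7.5 Tris buffer with MgCl2 and DTT, 25 °C, 10-min preincubation, 24 h run.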

full-length ATR, sequence (Q13535 whole entry): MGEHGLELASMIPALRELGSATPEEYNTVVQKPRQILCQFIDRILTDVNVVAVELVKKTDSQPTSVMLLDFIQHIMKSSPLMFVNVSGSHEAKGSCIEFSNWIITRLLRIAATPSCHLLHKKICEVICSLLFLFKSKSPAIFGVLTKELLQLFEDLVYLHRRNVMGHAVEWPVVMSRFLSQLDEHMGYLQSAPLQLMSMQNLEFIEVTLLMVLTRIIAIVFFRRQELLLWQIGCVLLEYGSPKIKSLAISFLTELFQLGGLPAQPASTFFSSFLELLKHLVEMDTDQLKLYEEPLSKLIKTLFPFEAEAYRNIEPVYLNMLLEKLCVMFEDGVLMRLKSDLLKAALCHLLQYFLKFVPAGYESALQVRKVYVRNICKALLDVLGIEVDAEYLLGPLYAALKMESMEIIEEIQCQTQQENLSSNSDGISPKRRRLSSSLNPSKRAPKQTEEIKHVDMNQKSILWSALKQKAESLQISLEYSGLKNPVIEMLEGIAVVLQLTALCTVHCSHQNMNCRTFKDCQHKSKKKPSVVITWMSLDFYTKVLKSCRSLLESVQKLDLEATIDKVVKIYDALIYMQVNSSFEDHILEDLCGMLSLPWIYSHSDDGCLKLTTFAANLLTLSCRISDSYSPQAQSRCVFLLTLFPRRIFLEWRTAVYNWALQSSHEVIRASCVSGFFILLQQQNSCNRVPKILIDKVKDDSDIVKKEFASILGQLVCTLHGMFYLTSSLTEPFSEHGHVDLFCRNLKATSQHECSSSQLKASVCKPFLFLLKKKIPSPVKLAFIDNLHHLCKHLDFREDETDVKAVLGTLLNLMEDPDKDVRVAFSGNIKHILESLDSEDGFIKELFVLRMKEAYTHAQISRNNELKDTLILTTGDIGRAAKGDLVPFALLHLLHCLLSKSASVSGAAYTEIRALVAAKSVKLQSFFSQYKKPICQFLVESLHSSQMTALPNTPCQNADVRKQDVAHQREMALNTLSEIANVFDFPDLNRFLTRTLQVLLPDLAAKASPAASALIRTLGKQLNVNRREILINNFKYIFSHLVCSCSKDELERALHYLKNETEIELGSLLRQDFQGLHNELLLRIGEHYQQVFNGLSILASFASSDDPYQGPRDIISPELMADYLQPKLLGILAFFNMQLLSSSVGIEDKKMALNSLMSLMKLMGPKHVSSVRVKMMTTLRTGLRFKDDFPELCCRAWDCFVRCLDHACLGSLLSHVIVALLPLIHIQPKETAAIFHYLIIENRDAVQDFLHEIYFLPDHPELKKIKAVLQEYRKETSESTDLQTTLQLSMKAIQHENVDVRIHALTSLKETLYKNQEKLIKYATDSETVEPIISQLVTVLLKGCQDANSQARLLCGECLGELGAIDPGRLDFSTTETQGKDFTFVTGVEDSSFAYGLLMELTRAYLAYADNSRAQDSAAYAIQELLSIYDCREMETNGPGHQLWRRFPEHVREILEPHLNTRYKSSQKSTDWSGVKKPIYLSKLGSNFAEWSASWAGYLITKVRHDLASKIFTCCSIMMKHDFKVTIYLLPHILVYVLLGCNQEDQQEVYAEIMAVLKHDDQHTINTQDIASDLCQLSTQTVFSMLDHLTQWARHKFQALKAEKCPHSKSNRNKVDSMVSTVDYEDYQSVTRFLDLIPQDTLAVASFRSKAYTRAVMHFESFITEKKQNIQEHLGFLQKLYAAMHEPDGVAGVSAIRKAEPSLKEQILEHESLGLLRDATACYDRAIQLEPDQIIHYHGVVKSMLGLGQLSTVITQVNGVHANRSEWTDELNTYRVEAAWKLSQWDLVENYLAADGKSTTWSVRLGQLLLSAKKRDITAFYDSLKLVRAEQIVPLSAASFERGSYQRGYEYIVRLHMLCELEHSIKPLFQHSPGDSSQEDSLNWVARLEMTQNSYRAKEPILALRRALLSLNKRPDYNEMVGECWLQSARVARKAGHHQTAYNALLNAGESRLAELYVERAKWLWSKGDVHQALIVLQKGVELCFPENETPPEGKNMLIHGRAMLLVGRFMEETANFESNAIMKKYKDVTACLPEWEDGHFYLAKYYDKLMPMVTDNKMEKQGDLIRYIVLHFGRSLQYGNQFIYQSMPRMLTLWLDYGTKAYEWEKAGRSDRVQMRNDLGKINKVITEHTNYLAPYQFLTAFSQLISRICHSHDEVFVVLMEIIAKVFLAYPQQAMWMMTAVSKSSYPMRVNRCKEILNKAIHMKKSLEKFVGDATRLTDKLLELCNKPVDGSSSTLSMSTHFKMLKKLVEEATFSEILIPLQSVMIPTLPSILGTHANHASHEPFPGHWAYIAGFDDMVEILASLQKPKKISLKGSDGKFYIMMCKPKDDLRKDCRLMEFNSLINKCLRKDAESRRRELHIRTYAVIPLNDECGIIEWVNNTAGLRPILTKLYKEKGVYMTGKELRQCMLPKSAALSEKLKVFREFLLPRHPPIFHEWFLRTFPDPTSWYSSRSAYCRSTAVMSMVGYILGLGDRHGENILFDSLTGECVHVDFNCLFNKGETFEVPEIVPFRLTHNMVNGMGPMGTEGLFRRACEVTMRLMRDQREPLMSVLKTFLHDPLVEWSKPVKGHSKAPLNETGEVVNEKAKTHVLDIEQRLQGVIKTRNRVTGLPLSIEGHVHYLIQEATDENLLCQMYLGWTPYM

SMILES | Ki [nM]
CC(C)S(=O)(=O)c1ccc(-c2cnc(N)c(-c3nnc(N4CCCC(CN)C4)o3)n2)cc1 (stereo not drawn) [IA-227, 3-[5-[3-(aminomethyl)-1-piperidyl]-1,3,4-oxadiazol-2-yl]-5-(4-isopropylsulfonylphenyl)pyrazin-2-amine] | 100 to 5000
CC(C)S(=O)(=O)c1ccc(-c2cnc(N)c(-c3nnc(-c4ccc([C@H](C)N)cc4)o3)n2)cc1 [IA-228, 3-[5-[4-[(1S)-1-aminoethyl]phenyl]-1,3,4-oxadiazol-2-yl]-5-(4-isopropylsulfonylphenyl)pyrazin-2-amine] | ≤ 10
CC(C)S(=O)(=O)c1ccc(-c2cnc(N)c(-c3nnc(C4=CCNCC4)o3)n2)cc1 [IA-232, 5-(4-isopropylsulfonylphenyl)-3-[5-(1,2,3,6-tetrahydropyridin-4-yl)-1,3,4-oxadiazol-2-yl]pyrazin-2-amine] | 10 to 100
CC(C)S(=O)(=O)c1ccc(-c2cnc(N)c(-c3nnc(-c4ccc(CNCC(F)F)s4)o3)n2)cc1 [IA-236, 3-[5-[5-[(2,2-difluoroethylamino)methyl]-2-thienyl]-1,3,4-oxadiazol-2-yl]-5-(4-isopropylsulfonylphenyl)pyrazin-2-amine] | 10 to 100
CC(C)S(=O)(=O)c1ccc(-c2cnc(N)c(-c3nnc(-c4ccc(CO)cc4)o3)n2)cc1 [IA-238, [4-[5-[3-amino-6-(4-isopropylsulfonylphenyl)pyrazin-2-yl]-1,3,4-oxadiazol-2-yl]phenyl]methanol] | ≤ 10
CC(C)S(=O)(=O)c1ccc(-c2cnc(N)c(-c3nnc(N4CCNCC4)o3)n2)cc1 [IA-239, 5-(4-isopropylsulfonylphenyl)-3-(5-piperazin-1-yl-1,3,4-oxadiazol-2-yl)pyrazin-2-amine] | 100 to 5000
CN(C)Cc1ccc(-c2cnc(N)c(-c3nnc(-c4ccc(CO)cc4)o3)n2)cc1 [IA-240, [4-[5-[3-amino-6-[4-(dimethylaminomethyl)phenyl]pyrazin-2-yl]-1,3,4-oxadiazol-2-yl]phenyl]methanol] | 100 to 5000
CC(C)S(=O)(=O)c1ccc(-c2cnc(N)c(-c3nnc(-c4ccc(CN(C)C)cc4)o3)n2)cc1 [IA-243, 3-[5-[4-(dimethylaminomethyl)phenyl]-1,3,4-oxadiazol-2-yl]-5-(4-isopropylsulfonylphenyl)pyrazin-2-amine] | ≤ 10
Cc1ccc(-c2nnc(-c3nc(-c4ccc(C(=O)N(C)C)cc4)cnc3N)o2)s1 [IA-245, 4-[5-amino-6-[5-(5-methyl-2-thienyl)-1,3,4-oxadiazol-2-yl]pyrazin-2-yl]-N,N-dimethyl-benzamide] | 10 to 100
Cc1csc(-c2nnc(-c3nc(-c4ccc(C(=O)N(C)C)cc4)cnc3N)o2)c1 [IA-246, 4-[5-amino-6-[5-(4-methyl-2-thienyl)-1,3,4-oxadiazol-2-yl]pyrazin-2-yl]-N,N-dimethyl-benzamide] | ≤ 10
CC(C)NCc1ccc(-c2nnc(-c3nc(-c4ccc(S(=O)(=O)C(C)C)cc4)cnc3N)o2)s1 [IA-248, 3-[5-[5-[(isopropylamino)methyl]-2-thienyl]-1,3,4-oxadiazol-2-yl]-5-(4-isopropylsulfonylphenyl)pyrazin-2-amine] | ≤ 10
CC(C)S(=O)(=O)c1ccc(-c2cnc(N)c(-c3nnc(CCNC(=O)OC(C)(C)C)o3)n2)cc1 [IA-251, tert-butyl N-[2-[5-[3-amino-6-(4-isopropylsulfonylphenyl)pyrazin-2-yl]-1,3,4-oxadiazol-2-yl]ethyl]carbamate] | 100 to 5000
CN(C)C(=O)c1ccc(-c2cnc(N)c(-c3nnc(Nc4cccc(C#N)c4)o3)n2)cc1 [IA-254, 4-[5-amino-6-[5-(3-cyanoanilino)-1,3,4-oxadiazol-2-yl]pyrazin-2-yl]-N,N-dimethyl-benzamide] | 100 to 5000
CC(C)S(=O)(=O)c1ccc(-c2cnc(N)c(-c3nnc(C(=O)NCC4CCCNC4)o3)n2)cc1 (stereo not drawn) [IA-255, 5-[3-amino-6-(4-isopropylsulfonylphenyl)pyrazin-2-yl]-N-(3-piperidylmethyl)-1,3,4-oxadiazole-2-carboxamide] | 100 to 5000
C#Cc1nnc(-c2nc(-c3ccc(S(=O)(=O)C(C)C)cc3)cnc2N)o1 [IA-258, 3-(5-ethynyl-1,3,4-oxadiazol-2-yl)-5-(4-isopropylsulfonylphenyl)pyrazin-2-amine] | ≤ 10
CN(C)C(=O)c1ccc(-c2cnc(N)c(-c3nnc(-c4ccsc4)o3)n2)cc1 [IA-262, 4-[5-amino-6-[5-(3-thienyl)-1,3,4-oxadiazol-2-yl]pyrazin-2-yl]-N,N-dimethyl-benzamide] | ≤ 10

Next, values leading:

Ki [nM] | SMILES
100 to 5000 | CC(C)Sc1ccccc1-c1cnc(N)c(-c2nnc(-c3ccccc3)o2)n1 [IA-229, 5-(2-isopropylsulfanylphenyl)-3-(5-phenyl-1,3,4-oxadiazol-2-yl)pyrazin-2-amine]
10 to 100 | CSc1ccccc1-c1cnc(N)c(-c2nnc(-c3ccccc3)o2)n1 [IA-230, 5-(2-methylsulfanylphenyl)-3-(5-phenyl-1,3,4-oxadiazol-2-yl)pyrazin-2-amine]
10 to 100 | CN(C)C(=O)c1ccc(-c2cnc(N)c(-c3nnc(-c4cccc(N)n4)o3)n2)cc1 [IA-231, 4-[5-amino-6-[5-(6-amino-2-pyridyl)-1,3,4-oxadiazol-2-yl]pyrazin-2-yl]-N,N-dimethyl-benzamide]
10 to 100 | CN(C)C(=O)c1ccc(-c2cnc(N)c(-c3nnc(-c4ccccc4C(F)(F)F)o3)n2)cc1 [IA-233, 4-[5-amino-6-[5-[2-(trifluoromethyl)phenyl]-1,3,4-oxadiazol-2-yl]pyrazin-2-yl]-N,N-dimethyl-benzamide]
≤ 10 | CN(C)C(=O)c1ccc(-c2cnc(N)c(-c3nnc(-c4ccc(CN)cc4)o3)n2)cc1 [IA-234, 4-[5-amino-6-[5-[4-(aminomethyl)phenyl]-1,3,4-oxadiazol-2-yl]pyrazin-2-yl]-N,N-dimethyl-benzamide]
≤ 10 | CC(C)S(=O)(=O)c1ccc(-c2cnc(N)c(-c3nnc(-c4ccccc4O)o3)n2)cc1 [IA-235, 2-[5-[3-amino-6-(4-isopropylsulfonylphenyl)pyrazin-2-yl]-1,3,4-oxadiazol-2-yl]phenol]
10 to 100 | Cc1cccc(-c2nnc(-c3nc(-c4ccc(C(=O)N(C)C)cc4)cnc3N)o2)c1 [IA-237, 4-[5-amino-6-[5-(m-tolyl)-1,3,4-oxadiazol-2-yl]pyrazin-2-yl]-N,N-dimethyl-benzamide]
≤ 10 | C[S+]([O-])c1ccccc1-c1cnc(N)c(-c2nnc(-c3ccccc3)o2)n1 (stereo not drawn) [IA-241, 5-(2-methylsulfinylphenyl)-3-(5-phenyl-1,3,4-oxadiazol-2-yl)pyrazin-2-amine]
≤ 10 | COc1ccccc1-c1nnc(-c2nc(-c3ccc(C(=O)N(C)C)cc3)cnc2N)o1 [IA-242, 4-[5-amino-6-[5-(2-methoxyphenyl)-1,3,4-oxadiazol-2-yl]pyrazin-2-yl]-N,N-dimethyl-benzamide]
100 to 5000 | CN(C)C(=O)c1ccccc1-c1cnc(N)c(-c2nnc(-c3ccccc3)o2)n1 [IA-244, 2-[5-amino-6-(5-phenyl-1,3,4-oxadiazol-2-yl)pyrazin-2-yl]-N,N-dimethyl-benzamide]
10 to 100 | CC(=O)Nc1ccc(-c2cnc(N)c(-c3nnc(-c4ccccc4)o3)n2)cc1 [IA-247, N-[4-[5-amino-6-(5-phenyl-1,3,4-oxadiazol-2-yl)pyrazin-2-yl]phenyl]acetamide]
10 to 100 | CC(=O)c1cccc(-c2cnc(N)c(-c3nnc(-c4ccccc4)o3)n2)c1 [IA-249, 1-[3-[5-amino-6-(5-phenyl-1,3,4-oxadiazol-2-yl)pyrazin-2-yl]phenyl]ethanone]
100 to 5000 | CN(C)C(=O)c1ccc(-c2cnc(N)c(-c3nnc(N(C)c4ccccc4)o3)n2)cc1 [IA-250, 4-[5-amino-6-[5-(N-methylanilino)-1,3,4-oxadiazol-2-yl]pyrazin-2-yl]-N,N-dimethyl-benzamide]
10 to 100 | N#Cc1cccc(-c2cnc(N)c(-c3nnc(-c4ccccc4)o3)n2)c1 [IA-252, 3-[5-amino-6-(5-phenyl-1,3,4-oxadiazol-2-yl)pyrazin-2-yl]benzonitrile]
100 to 5000 | C=Cc1ccccc1-c1cnc(N)c(-c2nnc(-c3ccccc3)o2)n1 [IA-253, 3-(5-phenyl-1,3,4-oxadiazol-2-yl)-5-(2-vinylphenyl)pyrazin-2-amine]
≤ 10 | CC[S+]([O-])c1ccccc1-c1cnc(N)c(-c2nnc(-c3ccccc3)o2)n1 (stereo not drawn) [IA-256, 5-(2-ethylsulfinylphenyl)-3-(5-phenyl-1,3,4-oxadiazol-2-yl)pyrazin-2-amine]
≤ 10 | C[S+]([O-])c1ccccc1-c1cnc(N)c(-c2nnc(-c3cccc(CN)c3)o2)n1 (stereo not drawn) [IA-257, 3-[5-[3-(aminomethyl)phenyl]-1,3,4-oxadiazol-2-yl]-5-(2-methylsulfinylphenyl)pyrazin-2-amine]
10 to 100 | Nc1ncc(-c2cccc3ccsc23)nc1-c1nnc(-c2ccccc2)o1 [IA-259, 5-(benzothiophen-7-yl)-3-(5-phenyl-1,3,4-oxadiazol-2-yl)pyrazin-2-amine]
10 to 100 | Nc1ncc(-c2cccc3ncccc23)nc1-c1nnc(-c2ccccc2)o1 [IA-260, 3-(5-phenyl-1,3,4-oxadiazol-2-yl)-5-(5-quinolyl)pyrazin-2-amine]
10 to 100 | NCC[S+]([O-])c1ccccc1-c1cnc(N)c(-c2nnc(-c3ccccc3)o2)n1 (stereo not drawn) [IA-261, 5-(2-(2-aminoethylsulfinyl)phenyl)-3-(5-phenyl-1,3,4-oxadiazol-2-yl)pyrazin-2-amine]
10 to 100 | Cc1ccc(-c2nnc(-c3nc(-c4ccc(C(=O)N(C)C)cc4)cnc3N)o2)cc1 [IA-263, 4-[5-amino-6-[5-(p-tolyl)-1,3,4-oxadiazol-2-yl]pyrazin-2-yl]-N,N-dimethyl-benzamide]
≤ 10 | N#Cc1cccn1-c1cnc(N)c(-c2nnc(-c3ccccc3)o2)n1 [IA-264, 1-[5-amino-6-(5-phenyl-1,3,4-oxadiazol-2-yl)pyrazin-2-yl]pyrrole-2-carbonitrile]
100 to 5000 | CN(C)CCNc1cc(-c2cnc(N)c(-c3nnc(-c4ccccc4)o3)n2)ccn1 [IA-265, N′-[4-[5-amino-6-(5-phenyl-1,3,4-oxadiazol-2-yl)pyrazin-2-yl]-2-pyridyl]-N,N-dimethyl-ethane-1,2-diamine]
